Laboratory results published in ChEMBL document CHEMBL1131160, “5-Substituted pyrimidines with a 1,5-anhydro-2, 3-dideoxy-D-arabino-hexitol moiety at N-1: synthesis, antiviral activity, conformational analysis, and interaction with viral thymidine kinase” (1998).
In brackets after ≈: the same amount, converted by molar mass.

Legend:
E6SM [1] = test: Compound was evaluated for the minimum cytotoxic concentration required to cause a microscopically detectable alteration of normal cell morphology.; assay type: functional; conditions: Homo sapiens
E6SM [2] = test: Compound was evaluated for the minimum inhibition concentration required to reduce virus-induced cytopathogenicity by 50%, determined against HSV-1 (TK-B2006) virus; assay type: functional; conditions: Homo sapiens
E6SM [3] = test: Compound was evaluated for the minimum inhibition concentration required to reduce virus-induced cytopathogenicity by 50%, determined against HSV-2 virus as means of G, 196, and Lyons strains; assay type: functional; conditions: Homo sapiens
E6SM [4] = test: Compound was evaluated for the minimum inhibition concentration required to reduce virus-induced cytopathogenicity by 50%, determined against KOS,F,McIntyre strains of HSV-1 virus.; assay type: functional; conditions: Homo sapiens
[5] = tested on: Human cytomegalovirus (AD-169); test: Compound was evaluated for the minimum inhibition concentration required to reduce virus-induced cytopathogenicity by 50%, determined against Cytomegalovirus (AD-169) in HEL cells.

| Compound | MCC (E6SM [1]) [µg/mL] | MIC (E6SM [2]) [µg/mL] | MIC (E6SM [3]) [µg/mL] | MIC (E6SM [4]) [µg/mL] | MIC [5] [µg/mL] |
| --- | --- | --- | --- | --- | --- |
| O=c1[nH]c(=O)n(C2COC(CO)C(O)C2)cc1-c1cccs1 (configuration not stated) | > 400 | 240 (≈ 740 µM) | 240 (≈ 740 µM) | 240 (≈ 740 µM) | > 50 |
| O=c1[nH]c(=O)n([C@H]2C[C@H](O)[C@@H](CO)O2)cc1/C=C/Br [BRIVUDINE] | > 200 | 3.2 (≈ 9.61 µM) | > 80 | 0.015 (≈ 0.045 µM) |  |
| CC#Cc1cn(C2COC(CO)C(O)C2)c(=O)[nH]c1=O (configuration not stated) | > 400 | 48 (≈ 171 µM) | 16 (≈ 57.1 µM) | 0.38 (≈ 1.36 µM) | > 50 |
| Nc1nc2c(ncn2COCCO)c(=O)[nH]1 [ACYCLOVIR] | > 200 | 1.92 (≈ 8.53 µM) | 0.38 (≈ 1.69 µM) | 0.075 (≈ 0.333 µM) |  |
| O=c1[nH]c(=O)n(C2COC(CO)C(O)C2)cc1C(F)(F)F (configuration not stated) | > 400 | 9.8 (≈ 31.6 µM) | 0.38 (≈ 1.22 µM) | 0.025 (≈ 0.0806 µM) | > 50 |
| C=Cc1cn(C2COC(CO)C(O)C2)c(=O)[nH]c1=O (configuration not stated) | > 400 | 240 (≈ 895 µM) | 9.6 (≈ 35.8 µM) | 0.075 (≈ 0.28 µM) | > 50 |
| C#Cc1cn(C2COC(CO)C(O)C2)c(=O)[nH]c1=O (configuration not stated) |  | > 400 | > 400 | 48 (≈ 180 µM) | > 50 |
| O=c1[nH]c(=O)n(C2COC(CO)C(O)C2)cc1Cl (configuration not stated) | > 400 | > 400 | > 400 | > 400 | > 50 |
| O=c1[nH]c(=O)n(C2COC(CO)C(O)C2)cc1I (configuration not stated) | > 400 | > 400 | 0.5 (≈ 1.36 µM) | 0.025 (≈ 0.0679 µM) | > 40 |
